Results reported in patent publication EP2951180B1, “2,6,7,8 SUBSTITUTED PURINES AS HDM2 INHIBITORS” (Merck Sharp & Dohme Corp., priority 2013, dated 2014).

Target: T1, HDM2 (Homo sapiens, UniProt Q00987)
T1 construct: Thioredoxin (N); made in house; host or cells: E. coli strain BL21(DE3)Rosetta
Assay: HDM2 FRET assay (inhibition of binding of FITC labeled p53-pocket peptide to HDM2)
Conditions: 0.5 nM HDM2 (residues 17 to 125), 3nM peptide, two hour incubation at room temperature; read-out: FRET IC50
Description: Methods: An HDM2 FRET assay was developed to assess the compounds' inhibitory activity towards binding of p53 protein. […] Protein was purified using Ni-affinity chromatography, followed by size exclusion chromatography using Superdex 75 26/60 column. […] The HDM2 assay buffer contained 1x Phosphate Buffered Saline (Invitrogen, Cat#14190), 0.01% BSA (Jackson ImmunoResearch, Cat# 001-000-162), 0.01% Tween-20. In the 1X assay buffer recombinant HDM2 protein, peptide and Lumi4-Tb Cryptate-conjugate mouse anti-6xHis antibody (cisbio, Cat#Tb61HISTLB) were added and transferred to ProxiPlate PLUS (PerkinElmer, Cat#6008269), containing compounds so that final DMSO concentration is 0.1% . Final concentrations of reagents in the assay wells are 0.5 nM HDM2, 0.25nM anti HIS (Tb label) antibody and 3nM peptide. […] Ratio of em520/em495 was used to calculate %inhibition and to obtain IC50 with 4-parameter logistic equation.
IC50 DETERMINATIONS: Dose-response curves were plotted from the inhibition data, from 10 point serial dilutions of inhibitory compounds. Concentration of compound was plotted against em520/Cem495 ratio signal. To generate IC50 values, the dose-response curves were fitted to a standard sigmoidal curve and IC50 values were derived by nonlinear regression analysis.

T1 sequence (Q00987 17-125): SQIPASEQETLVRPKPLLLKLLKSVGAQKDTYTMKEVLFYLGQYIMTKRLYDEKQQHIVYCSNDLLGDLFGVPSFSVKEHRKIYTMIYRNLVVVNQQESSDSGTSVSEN

Row | Compound | IC50 [nM]
1 | C[C@H]1CC[C@H](Cn2c(N3CCC4OCCC43)nc3nc(-c4noc(=O)[nH]4)nc(-c4cccc(Cl)c4)c32)CC1 (relative stereo) [Example 16.150, 3-{6-(3-chlorophenyl)-8-(hexahydro-4H-furo[3,2-b]pyrrol-4-yl)-7-[(trans-4-methylcyclohexyl)methyl]-7H-purin-2-yl}-1,2,4-oxadiazol-5(4H)-one] | 45
2 | CC(c1nc2nc(-c3noc(=O)[nH]3)nc(-c3cccc(Cl)c3)c2n1C[C@H]1CC[C@H](C)CC1)C1CCOCC1 (relative stereo) [Example 24.3, 3-{6-(3-chlorophenyl)-7-[(trans-4-methylcyclohexyl)methyl]-8-[1-(tetrahydro-2H-pyran-4-yl)ethyl]-7H-purin-2-yl}-1,2,4-oxadiazol-5(4H)-one] | 14.2

Same assay, conditions: Table 9; read-out: FRET IC50

Row | Compound | IC50 [nM]
3 | C[C@@H](Nc1nc(C(=O)O)nc2nc(N3CCCC3c3ccccc3)n(Cc3ccc(C(F)(F)F)cc3)c12)C1CCC1 (single isomer, unassigned) [Example 9.64] | 10.2
4 | C[C@@H](Nc1nc(C(=O)O)nc2nc(N3CCCC3c3ccccc3)n(Cc3ccc(C(F)(F)F)cc3)c12)C1CCC1 (single isomer, unassigned) [Example 9.65] | 11.4

Same assay, conditions: Table 11; read-out: FRET IC50

Row | Compound | IC50 [nM]
5 | C[C@@H](Nc1nc(-c2noc(=O)[nH]2)nc2nc(N3CCCCC3c3cccnc3)n(C[C@H]3CC[C@H](C)CC3)c12)C1CCC1 (single isomer, unassigned) [Example 11.49] | 2.43
6 | C[C@@H](Nc1nc(-c2noc(=O)[nH]2)nc2nc(N3CCCCC3c3cccnc3)n(C[C@H]3CC[C@H](C)CC3)c12)C1CCC1 (single isomer, unassigned) [Example 11.50] | 14.3
7 | C[C@@H]1CCCCN1c1nc2nc(-c3nc(=O)o[nH]3)nc(N[C@H](C)C3CCC3)c2n1C[C@H]1CC[C@H](C)CC1 (single isomer, unassigned) [Example 11.58] | 5.37
8 | C[C@@H](Nc1nc(-c2nc(=O)o[nH]2)nc2nc(N3CCCC[C@@H]3C)n(C[C@H]3CC[C@H](C)CC3)c12)C1CCC1 (single isomer, unassigned) [Example 11.59] | 13.5
9 | CC1CCN(c2nc3nc(-c4noc(=O)[nH]4)nc(N[C@H](C)C4CCC4)c3n2C[C@H]2CC[C@H](C)CC2)C(c2ccccc2)C1 (single isomer, unassigned) [Example 11.68] | 2.04
10 | CC1CCN(c2nc3nc(-c4noc(=O)[nH]4)nc(N[C@H](C)C4CCC4)c3n2C[C@H]2CC[C@H](C)CC2)C(c2ccccc2)C1 (single isomer, unassigned) [Example 11.69] | 17.3
11 | C[C@@H](Nc1nc(-c2noc(=O)[nH]2)nc2nc(N3CCOCC3c3ccccc3Cl)n(C[C@H]3CC[C@H](C)CC3)c12)C1CCC1 (single isomer, unassigned) [Example 11.117] | 3.77
12 | C[C@@H](Nc1nc(-c2noc(=O)[nH]2)nc2nc(N3CCOCC3c3ccccc3Cl)n(C[C@H]3CC[C@H](C)CC3)c12)C1CCC1 (single isomer, unassigned) [Example 11.118] | 0.568
13 | C[C@@H](Nc1nc(-c2noc(=O)[nH]2)nc2nc(NC(CO)c3ccccc3)n(C[C@H]3CC[C@H](C)CC3)c12)C1CCC1 (single isomer, unassigned) [Example 11.121] | 40.1
14 | C[C@@H](Nc1nc(-c2noc(=O)[nH]2)nc2nc(NC(CO)c3ccccc3)n(C[C@H]3CC[C@H](C)CC3)c12)C1CCC1 (single isomer, unassigned) [Example 11.122] | 4.17
15 | C[C@@H](Nc1nc(-c2n[nH]c(=O)o2)nc2nc(N3CCOC4CCCCC43)n(C[C@H]3CC[C@H](C)CC3)c12)C1CCC1 (single isomer, unassigned) [Example 11.125] | 7.49
16 | C[C@@H](Nc1nc(-c2n[nH]c(=O)o2)nc2nc(N3CCOC4CCCCC43)n(C[C@H]3CC[C@H](C)CC3)c12)C1CCC1 (single isomer, unassigned) [Example 11.126] | 1.46
17 | C[C@@H](Nc1nc(-c2noc(=O)[nH]2)nc2nc(N3CCOC4CCCC43)n(C[C@H]3CC[C@H](C)CC3)c12)C1CCC1 (single isomer, unassigned) [Example 11.131] | 7.02
18 | C[C@@H](Nc1nc(-c2noc(=O)[nH]2)nc2nc(N3CCOC4CCCC43)n(C[C@H]3CC[C@H](C)CC3)c12)C1CCC1 (single isomer, unassigned) [Example 11.133] | 0.344
19 | C[C@@H](Nc1nc(-c2noc(=O)[nH]2)nc2nc(N3CCCC3c3ccccc3)n(C[C@H]3CC[C@H](C)CC3)c12)C1CCC1 (single isomer, unassigned) [Example 11.135] | 2.08
20 | C[C@@H](Nc1nc(-c2noc(=O)[nH]2)nc2nc(N3CCCC3c3ccccc3)n(C[C@H]3CC[C@H](C)CC3)c12)C1CCC1 (single isomer, unassigned) [Example 11.136] | 514
21 | C[C@@H](Nc1nc(-c2n[nH]c(=O)o2)nc2nc(N3CCOC4CCCC43)n(C[C@H]3CC[C@H](C)CC3)c12)C1CCC1 (single isomer, unassigned) [Example 11.140] | 9.87
22 | C[C@@H](Nc1nc(-c2n[nH]c(=O)o2)nc2nc(N3CCOC4CCCC43)n(C[C@H]3CC[C@H](C)CC3)c12)C1CCC1 (single isomer, unassigned) [Example 11.141] | 0.841
23 | C[C@@H](Nc1nc(-c2noc(=O)[nH]2)nc2nc(N3CCOC4CCCC43)n(C[C@H]3CC[C@H](C)CC3)c12)C1CCC1 (single isomer, unassigned) [Example 11.148] | 23.8
24 | C[C@@H](Nc1nc(-c2noc(=O)[nH]2)nc2nc(N3CCOC4CCCC43)n(C[C@H]3CC[C@H](C)CC3)c12)C1CCC1 (single isomer, unassigned) [Example 11.149] | 3.58
25 | COCC1COCCN1c1nc2nc(-c3noc(=O)[nH]3)nc(N[C@H](C)C3CCC3)c2n1C[C@H]1CC[C@H](C)CC1 (single isomer, unassigned) [Example 11.150] | 6.73
26 | COCC1COCCN1c1nc2nc(-c3noc(=O)[nH]3)nc(N[C@H](C)C3CCC3)c2n1C[C@H]1CC[C@H](C)CC1 (single isomer, unassigned) [Example 11.151] | 20.9

Same assay, conditions: Table 23; read-out: FRET IC50

Row | Compound | IC50 [nM]
27 | COC1(c2nc3nc(-c4noc(=O)[nH]4)nc(-c4cncc(Cl)c4)c3n2C[C@H]2CC[C@H](C)CC2)CCCCC1C (relative stereo) [Example 23.63, 3-{6-(5-chloropyridin-3-yl)-8-(1-methoxy-2-methylcyclohexyl)-7-[(trans-4-methylcyclohexyl)methyl] -7H-purin-2-yl}-1,2,4-oxadiazol-5(4H)-one] | 7.64
28 | COC1(c2nc3nc(-c4n[nH]c(=O)o4)nc(-c4cncc(Cl)c4)c3n2C[C@H]2CC[C@H](C)CC2)CCCCC1C (relative stereo) [Example 23.64, 5-{6-(5-chloropyridin-3-yl)-8-(1-methoxy-2-methylcyclohexyl)-7-[(trans-4-methylcyclohexyl)methyl] -7H-purin-2-yl}-1,3,4-oxadiazol-2(3H)-one] | 8.8
29 | CC1CCCCC1(F)c1nc2nc(-c3noc(=O)[nH]3)nc(-c3cncc(Cl)c3)c2n1C[C@H]1CC[C@H](C)CC1 (relative stereo) [Example 23.65, 3-{6-(5-chloropyridin-3-yl)-8-(1-fluoro-2-methylcyclohexyl)-7-[(trans-4-methylcyclohexyl)methyl] -7H-purin-2-yl}-1,2,4-oxadiazol-5(4H)-one] | 6.63
